Results published in US8563578B2, “Antitumor properties of NO modified protease inhibitors” (Onconox APS, priority 2008, dated 2013).

System: B16 cells
Experiment: Viability (MTT) of B16 cells with Saq-NO2 plus Akt/PI-3K inhibitor
Type: cell-based, mouse
Details: B16, 24 h, 18.8 μM Saq-NO2 with Akt VI (50μg/ml) or 3-MA (1 mM)
Protocol: Reduction of 3-4,5-dimethylthiazol-2-yl)-2,5-diphenyltetrazolium bromide (MTT) to formazan depends on mitochondrial activity of cultured cells, absorption of crystal violet dye correlates with the number of adherent, live cells, while the release of cytosolic lactate dehydrogenase (LDH) indicates the disruption of membrane integrity caracteristic for necrotic cells. The cells were seeded in flat-bottom 96-well plates in a final volume of 200 μl of culture medium containing different agents, and the assays were performed after 24 h incubation exactly as previously described (Mijatovic et al. 2004, Decker et al., 1998). Mitohondrial-dependent production of formazan and intensity of absorbed crystal violet by adherent cells were assessed by an automated microplate reader at 570 nm, while the pyruvate-mediated conversion of 2,4-dinitrophenylhydrazine into visible hydrazone precipitate in LDH assay was measured at 492 nm. The % of cytotoxicity as indicated by LDH release was calculated as: (E−C)/(T−C)×100, where E is the experimental absorbance of cell cultures, C is the control absorbance of cell-free culture medium, and T is the absorbance corresponding to the maximal (100%) LDH release of Triton-lysed cells.
FIG. 6. […] (C) B16 cells (1×10^4 cells/well) were incubated for 24 h with 18.8 μM Saq-NO2 with or without Akt VI (50μg/ml) or 3-MA (1 mM) and cell viability was assessed by MTT. […]

Cn1cnc(=N)c2[nH]cnc21 [3-MA]
tumor cell viability on addition of inhibitor to Saq-NO2: further decrease of tumor cell viability
